Experiments:
[1] = water
S180 sarcoma cells = assay: Effect in prolonging the life of mouse with cancer (S180), Test Example 2; assay type: in vivo, DBA/2 mice; conditions: i.p. once, 30 days observation
Protocol: To DBA/2 mice, S180 sarcoma cells were intraperitoneally inoculated with approximately 1×10^6 cells/mouse. The test drugs were intraperitoneally administered once (e.g. after 24 hours of inoculation). […] The ratio (T/C %) of survival time of test and control animals was obtained and is shown in table V with the average number of survival days for mice of the control group to which a physiological saline was administered being evaluated as 100. The test drugs were aqueous suspensions obtained by adding small amount of surfactants (e.g. tween-80) to the less soluble test compounds in water.

[2] = test system: L1210 mouse leukemia cells; assay: Effect in prolonging the life of mouse with cancer (L1210), Test Example 1; assay type: in vivo, DBA/2 mice; conditions: i.p. once, 30 days observation
Protocol: To DBA/2 mice, L1210 mouse leukemia cells were inoculated into the abdominal cavity of each mouse used in the test. The test drugs were intraperitoneally administered once (e.g. after 24 hours of inoculation). […] The ratio (T/C %) of the survival time of a treated group (administered with a certain drug) to the survival time of a control group (administered with only physiological saline) was obtained and is shown in table VI with the average number of survival days for mice of the control group being evaluated as 100. The test drugs were aqueous suspensions obtained by adding small amounts of surfactants (e.g. tween-80) to the less soluble test compounds in water.

[3] = test system: Sarcoma 180 and Leukemia L1210; conditions: reported in 1969; cited from earlier work
[4] = L1210 S180 printed, one value only, 8 mg/kg

SMILES: N[C@@H]1COCO[C@@H]1c1ccccc1.N[C@@H]1COCO[C@@H]1c1ccccc1.[I][Pt][I]
- Solubility [1]: 20 µg/mL

SMILES: N[C@@H]1COCO[C@@H]1c1ccccc1.N[C@@H]1COCO[C@@H]1c1ccccc1.[Cl][Pt][Cl]
- Solubility [1]: 60 µg/mL

SMILES: NCc1ccc(O)cc1.NCc1ccc(O)cc1.[I][Pt][I]
- Solubility [1]: 800 µg/mL

SMILES: NCc1ccc(O)cc1.NCc1ccc(O)cc1.[Cl][Pt][Cl]
- Solubility [1]: 1500 µg/mL

SMILES: NCc1ccccc1CN.[I][Pt][I]
- Solubility [1]: 10 µg/mL

SMILES: NCc1ccccc1CN.[Cl][Pt][Cl]
- Solubility [1]: 20 µg/mL

SMILES: NCc1cc(C(=O)O)c(C(=O)O)cc1CN.[I][Pt][I]
- Solubility [1]: 1100 µg/mL

SMILES: NCc1cc(C(=O)O)c(C(=O)O)cc1CN.[Cl][Pt][Cl]
- Solubility [1]: 2400 µg/mL

SMILES: NCc1ccc(Cl)cc1.NCc1ccc(Cl)cc1.[I][Pt][I]
- T/C (%) of ST (ratio of survival time of test and control animals) (S180 sarcoma cells; 10 mg/kg): > 140%
- T/C (%) of ST (ratio of survival time of test and control animals) ([2]; L1210, 10 mg/kg): > 182%

SMILES: NCc1ccccc1.NCc1ccccc1.[I][Pt][I]
- T/C (%) of ST (ratio of survival time of test and control animals) [2, 4]: > 201%

SMILES: NCc1ccccc1.NCc1ccccc1.[Cl][Pt][Cl]
- T/C (%) of ST (ratio of survival time of test and control animals) [2, 4]: > 201%

SMILES: NCc1ccccc1Br.NCc1ccccc1Br.[I][Pt][I]
- T/C (%) of ST (ratio of survival time of test and control animals) (S180 sarcoma cells; 10 mg/kg): > 180%
- T/C (%) of ST (ratio of survival time of test and control animals) ([2]; L1210, 10 mg/kg): > 175%

SMILES: NCc1ccccc1Br.NCc1ccccc1Br.[Cl][Pt][Cl]
- T/C (%) of ST (ratio of survival time of test and control animals) (S180 sarcoma cells; 10 mg/kg): > 184%
- T/C (%) of ST (ratio of survival time of test and control animals) ([2]; L1210, 10 mg/kg): > 180%

SMILES: NCc1ccc(Br)cc1.NCc1ccc(Br)cc1.[I][Pt][I]
- T/C (%) of ST (ratio of survival time of test and control animals) (S180 sarcoma cells; 17.5 mg/kg): > 158%
- T/C (%) of ST (ratio of survival time of test and control animals) ([2]; L1210, 17.5 mg/kg): > 150%

SMILES: NCc1ccc(Br)cc1.NCc1ccc(Br)cc1.[Cl][Pt][Cl]
- T/C (%) of ST (ratio of survival time of test and control animals) (S180 sarcoma cells; 12 mg/kg): > 198%
- T/C (%) of ST (ratio of survival time of test and control animals) ([2]; L1210, 12 mg/kg): > 205%

SMILES: NCc1ccc(F)cc1.NCc1ccc(F)cc1.[I][Pt][I] [I 11]
- T/C (%) of ST (ratio of survival time of test and control animals) (S180 sarcoma cells; 13.5 mg/kg): > 184%
- T/C (%) of ST (ratio of survival time of test and control animals) ([2]; L1210, 13.5 mg/kg): > 161%

SMILES: NCc1ccc(F)cc1.NCc1ccc(F)cc1.[Cl][Pt][Cl] [I 12]
- T/C (%) of ST (ratio of survival time of test and control animals) (S180 sarcoma cells; 13.5 mg/kg): > 175%
- T/C (%) of ST (ratio of survival time of test and control animals) ([2]; L1210, 13.5 mg/kg): > 177%

SMILES: NCc1ccc(Cl)c(O)c1.NCc1ccc(Cl)c(O)c1.[I][Pt][I] [I 20]
- T/C (%) of ST (ratio of survival time of test and control animals) (S180 sarcoma cells; 15 mg/kg): > 227%
- T/C (%) of ST (ratio of survival time of test and control animals) ([2]; L1210, 15 mg/kg): > 212%

SMILES: NCc1ccc(Cl)c(O)c1.NCc1ccc(Cl)c(O)c1.[Cl][Pt][Cl] [I 21]
- T/C (%) of ST (ratio of survival time of test and control animals) (S180 sarcoma cells; 15 mg/kg): > 251%
- T/C (%) of ST (ratio of survival time of test and control animals) ([2]; L1210, 15 mg/kg): > 238%

SMILES: C[C@@H](N)c1ccccc1.C[C@@H](N)c1ccccc1.[I][Pt][I] [I 28]
- T/C (%) of ST (ratio of survival time of test and control animals) (S180 sarcoma cells; 17.5 mg/kg): > 215%
- T/C (%) of ST (ratio of survival time of test and control animals) ([2]; L1210, 17.5 mg/kg): > 220%

SMILES: C[C@@H](N)c1ccccc1.C[C@@H](N)c1ccccc1.[Cl][Pt][Cl] [I 29]
- T/C (%) of ST (ratio of survival time of test and control animals) (S180 sarcoma cells; 17.5 mg/kg): > 250%
- T/C (%) of ST (ratio of survival time of test and control animals) ([2]; L1210, 17.5 mg/kg): > 246%

SMILES: C[C@H](N)c1ccccc1.C[C@H](N)c1ccccc1.[I][Pt][I] [I 30]
- T/C (%) of ST (ratio of survival time of test and control animals) (S180 sarcoma cells; 17.5 mg/kg): > 230%
- T/C (%) of ST (ratio of survival time of test and control animals) ([2]; L1210, 17.5 mg/kg): > 226%

SMILES: C[C@H](N)c1ccccc1.C[C@H](N)c1ccccc1.[Cl][Pt][Cl] [I 31]
- T/C (%) of ST (ratio of survival time of test and control animals) (S180 sarcoma cells; 17.5 mg/kg): > 245%
- T/C (%) of ST (ratio of survival time of test and control animals) ([2]; L1210, 17.5 mg/kg): > 260%

SMILES: NCc1ccc(C(=O)O)cc1.NCc1ccc(C(=O)O)cc1.[I][Pt][I] [I 36]
- T/C (%) of ST (ratio of survival time of test and control animals) (S180 sarcoma cells; 10 mg/kg): > 230%
- T/C (%) of ST (ratio of survival time of test and control animals) ([2]; L1210, 10 mg/kg): > 243%

SMILES: NCc1ccc(C(=O)O)cc1.NCc1ccc(C(=O)O)cc1.[Cl][Pt][Cl] [I 37]
- T/C (%) of ST (ratio of survival time of test and control animals) (S180 sarcoma cells; 10 mg/kg): > 255%
- T/C (%) of ST (ratio of survival time of test and control animals) ([2]; L1210, 10 mg/kg): > 250%

SMILES: NCc1ccco1.NCc1ccco1.[I][Pt][I] [I 42]
- T/C (%) of ST (ratio of survival time of test and control animals) (S180 sarcoma cells; 17.5 mg/kg): > 200%
- T/C (%) of ST (ratio of survival time of test and control animals) ([2]; L1210, 17.5 mg/kg): > 200%

SMILES: NCc1ccco1.NCc1ccco1.[Cl][Pt][Cl] [I 43]
- T/C (%) of ST (ratio of survival time of test and control animals) (S180 sarcoma cells; 12 mg/kg): > 230%
- T/C (%) of ST (ratio of survival time of test and control animals) ([2]; L1210, 12 mg/kg): > 225%

SMILES: NCc1ccc(CO)o1.NCc1ccc(CO)o1.[I][Pt][I] [I 44]
- T/C (%) of ST (ratio of survival time of test and control animals) (S180 sarcoma cells; 17.5 mg/kg): > 220%
- T/C (%) of ST (ratio of survival time of test and control animals) ([2]; L1210, 17.5 mg/kg): > 215%

SMILES: NCc1ccc(CO)o1.NCc1ccc(CO)o1.[Cl][Pt][Cl] [I 45]
- T/C (%) of ST (ratio of survival time of test and control animals) (S180 sarcoma cells; 12 mg/kg): > 218%
- T/C (%) of ST (ratio of survival time of test and control animals) ([2]; L1210, 12 mg/kg): > 226%

SMILES: N.N.[Cl][Pt][Cl] [PDD, Cis-platinum (II) diamine dichloride]
- anticancer activity [3]: strong anticancer activity against Sarcoma 180 and Leukemia L1210

SMILES: NCc1ccc(Cl)cc1.NCc1ccc(Cl)cc1.O=C([O-])C1(C(=O)[O-])CCC1.[Pt+2] [V/7]
- T/C (%) of ST (ratio of survival time of test and control animals) (S180 sarcoma cells; 10 mg/kg): > 202%
- T/C (%) of ST (ratio of survival time of test and control animals) ([2]; L1210, 10 mg/kg): > 210%

SMILES: NCc1ccc(Cl)cc1.NCc1ccc(Cl)cc1.[Cl][Pt][Cl] [drawing 204]
- Solubility [1]: 10 µg/mL

SMILES: NCc1ccc(Cl)c(O)c1.NCc1ccc(Cl)c(O)c1.[I][Pt][I] [drawing 209]
- Solubility [1]: 400 µg/mL

SMILES: NCc1ccc(Cl)c(O)c1.NCc1ccc(Cl)c(O)c1.[Cl][Pt][Cl] [drawing 210]
- Solubility [1]: 900 µg/mL

SMILES: NCc1ccc(C(=O)O)cc1.NCc1ccc(C(=O)O)cc1.[I][Pt][I] [drawing 211]
- Solubility [1]: 1000 µg/mL

SMILES: NCc1ccc(C(=O)O)cc1.NCc1ccc(C(=O)O)cc1.[Cl][Pt][Cl] [drawing 212]
- Solubility [1]: 2200 µg/mL

SMILES: NCc1ccco1.NCc1ccco1.[I][Pt][I] [drawing 213]
- Solubility [1]: 60 µg/mL

SMILES: NCc1ccco1.NCc1ccco1.[Cl][Pt][Cl] [drawing 214]
- Solubility [1]: 160 µg/mL

SMILES: NCc1ccc(CO)o1.NCc1ccc(CO)o1.[I][Pt][I] [drawing 215]
- Solubility [1]: 200 µg/mL

SMILES: NCc1ccc(CO)o1.NCc1ccc(CO)o1.[Cl][Pt][Cl] [drawing 216]
- Solubility [1]: 1100 µg/mL

SMILES: NCc1ccc(Cl)cc1.NCc1ccc(Cl)cc1.[Cl][Pt][Cl] [drawing 224]
- T/C (%) of ST (ratio of survival time of test and control animals) (S180 sarcoma cells; 10 mg/kg): > 140%
- T/C (%) of ST (ratio of survival time of test and control animals) ([2]; L1210, 10 mg/kg): > 197%

SMILES: N.N.O=C1[O][Pt][O]C(=O)C12CCC2 [reference compound]
- Solubility [1]: 18500 µg/mL

Source: patent US5198564A, “Cis-platinum-diamine complexes and antitumorous compositions containing them, and process for their preparation” (Beijing Polytechnic University, priority 1987, dated 1993)
